Test system: LG0703-F948-PDC complex spheroid viability
Assay: Anticancer human tumor LG0703-F948-PDC patient-derived lung adenocarcinoma cell line growth inhibition [RAS]
Details: for viability, T/C: stronger effect = lower value
Outline: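 Multi-cell-type spheroids: tumor cells plus HUVEC endothelial cells and mesenchymal stem cells. RAS-pathway inhibitors were combined with targeted agents, each dosed in half-log steps down from clinical Cmax, or from 10 microM when Cmax was unknown.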

[1] = curve of first compound, second compound 0.0316 µM
[2] = curve of first compound, second compound 0.1 µM
[3] = curve of first compound, second compound 0.316 µM
[4] = curve of first compound, second compound 1 µM
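Further: spheroids exposed to agents for 7 days.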
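Wherever viability, T/C is given: 100% = DMSO vehicle wells.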

Structure (SMILES): CC(C)n1nc(-c2ccc3oc(N)nc3c2)c2c(N)ncnc21 + C=CC(=O)N1CCN(c2nc(OCC3CCCN3C)nc3c(F)c(-c4nc(N)cc(C)c4C(F)(F)F)c(Cl)cc23)C(C)C1
- IC50 (curve of first compound, second compound 0.00316 µM): 2.63 nM
- IC50 (curve of first compound, second compound 0.01 µM): 4.04 nM
- IC50 [1]: 3.57 nM
- IC50 [2]: 3.98 nM
- IC50 [3]: 4.22 nM
- IC50 [4]: 4.58 nM
- viability, T/C (second compound 0.00316 µM, first compound 0.000316 µM): 90.6%
- viability, T/C (second compound 0.00316 µM, first compound 0.001 µM): 65.3%
- viability, T/C (second compound 0.00316 µM, first compound 0.00316 µM): 49.1%
- viability, T/C (second compound 0.00316 µM, first compound 0.01 µM): 29.7%
- viability, T/C (second compound 0.00316 µM, first compound 0.0316 µM): 12.6%
- viability, T/C (second compound 0.00316 µM, first compound 0.1 µM): 7.5%
- viability, T/C (second compound 0.01 µM, first compound 0.000316 µM): 92.8%
- viability, T/C (second compound 0.01 µM, first compound 0.001 µM): 79.9%
- viability, T/C (second compound 0.01 µM, first compound 0.00316 µM): 55.6%
- viability, T/C (second compound 0.01 µM, first compound 0.01 µM): 29.7%
- viability, T/C (second compound 0.01 µM, first compound 0.0316 µM): 12.3%
- viability, T/C (second compound 0.01 µM, first compound 0.1 µM): 7.9%
- viability, T/C (second compound 0.0316 µM, first compound 0.000316 µM): 94.8%
- viability, T/C (second compound 0.0316 µM, first compound 0.001 µM): 76%
- viability, T/C (second compound 0.0316 µM, first compound 0.00316 µM): 52.3%
- viability, T/C (second compound 0.0316 µM, first compound 0.01 µM): 30.9%
- viability, T/C (second compound 0.0316 µM, first compound 0.0316 µM): 12.8%
- viability, T/C (second compound 0.0316 µM, first compound 0.1 µM): 6.67%
- viability, T/C (second compound 0.1 µM, first compound 0.000316 µM): 106%
- viability, T/C (second compound 0.1 µM, first compound 0.001 µM): 78.3%
- viability, T/C (second compound 0.1 µM, first compound 0.00316 µM): 57.6%
- viability, T/C (second compound 0.1 µM, first compound 0.01 µM): 31.4%
- viability, T/C (second compound 0.1 µM, first compound 0.0316 µM): 14.3%
- viability, T/C (second compound 0.1 µM, first compound 0.1 µM): 8.14%
- viability, T/C (second compound 0.316 µM, first compound 0.000316 µM): 103%
- viability, T/C (second compound 0.316 µM, first compound 0.001 µM): 79.3%
- viability, T/C (second compound 0.316 µM, first compound 0.00316 µM): 59%
- viability, T/C (second compound 0.316 µM, first compound 0.01 µM): 31.5%
- viability, T/C (second compound 0.316 µM, first compound 0.0316 µM): 12.9%
- viability, T/C (second compound 0.316 µM, first compound 0.1 µM): 7.55%
- viability, T/C (second compound 1 µM, first compound 0.000316 µM): 114%
- viability, T/C (second compound 1 µM, first compound 0.001 µM): 84.8%
- viability, T/C (second compound 1 µM, first compound 0.00316 µM): 59.2%
- viability, T/C (second compound 1 µM, first compound 0.01 µM): 34.3%
- viability, T/C (second compound 1 µM, first compound 0.0316 µM): 13.9%
- viability, T/C (second compound 1 µM, first compound 0.1 µM): 6.36%

Structure (SMILES): CCc1c2c(nc3ccc(O)cc13)-c1cc3c(c(=O)n1C2)COC(=O)[C@]3(O)CC + C#Cc1c(F)ccc2cc(O)cc(-c3ncc4c(N5CC6CCC(C5)N6)nc(OCC56CCCN5CC(F)C6)nc4c3F)c12
- IC50 [1]: 38.2 nM
- IC50 [2]: 35.9 nM
- IC50 [3]: 47.6 nM
- IC50 [4]: 34.9 nM
- IC50 (curve of first compound, second compound 3.16 µM): 32.2 nM
- IC50 (curve of first compound, second compound 10 µM): < 0.949 nM
- viability, T/C (second compound 0.0316 µM, first compound 0.000949 µM): 98.4%
- viability, T/C (second compound 0.0316 µM, first compound 0.003 µM): 90.5%
- viability, T/C (second compound 0.0316 µM, first compound 0.00949 µM): 72.3%
- viability, T/C (second compound 0.0316 µM, first compound 0.03 µM): 48.3%
- viability, T/C (second compound 0.0316 µM, first compound 0.0949 µM): 41.7%
- viability, T/C (second compound 0.0316 µM, first compound 0.3 µM): 19.7%
- viability, T/C (second compound 0.1 µM, first compound 0.000949 µM): 92.4%
- viability, T/C (second compound 0.1 µM, first compound 0.003 µM): 91.1%
- viability, T/C (second compound 0.1 µM, first compound 0.00949 µM): 77.6%
- viability, T/C (second compound 0.1 µM, first compound 0.03 µM): 49.8%
- viability, T/C (second compound 0.1 µM, first compound 0.0949 µM): 36.4%
- viability, T/C (second compound 0.1 µM, first compound 0.3 µM): 20.1%
- viability, T/C (second compound 0.316 µM, first compound 0.000949 µM): 85.3%
- viability, T/C (second compound 0.316 µM, first compound 0.003 µM): 77.7%
- viability, T/C (second compound 0.316 µM, first compound 0.00949 µM): 81.5%
- viability, T/C (second compound 0.316 µM, first compound 0.03 µM): 51.7%
- viability, T/C (second compound 0.316 µM, first compound 0.0949 µM): 41.4%
- viability, T/C (second compound 0.316 µM, first compound 0.3 µM): 20.2%
- viability, T/C (second compound 1 µM, first compound 0.000949 µM): 65.5%
- viability, T/C (second compound 1 µM, first compound 0.003 µM): 61.7%
- viability, T/C (second compound 1 µM, first compound 0.00949 µM): 61.7%
- viability, T/C (second compound 1 µM, first compound 0.03 µM): 50.9%
- viability, T/C (second compound 1 µM, first compound 0.0949 µM): 38.4%
- viability, T/C (second compound 1 µM, first compound 0.3 µM): 25.3%
- viability, T/C (second compound 3.16 µM, first compound 0.000949 µM): 58.5%
- viability, T/C (second compound 3.16 µM, first compound 0.003 µM): 60.3%
- viability, T/C (second compound 3.16 µM, first compound 0.00949 µM): 50.3%
- viability, T/C (second compound 3.16 µM, first compound 0.03 µM): 52.7%
- viability, T/C (second compound 3.16 µM, first compound 0.0949 µM): 30.4%
- viability, T/C (second compound 3.16 µM, first compound 0.3 µM): 17%
- viability, T/C (second compound 10 µM, first compound 0.000949 µM): 41%
- viability, T/C (second compound 10 µM, first compound 0.003 µM): 49.4%
- viability, T/C (second compound 10 µM, first compound 0.00949 µM): 46.9%
- viability, T/C (second compound 10 µM, first compound 0.03 µM): 33.9%
- viability, T/C (second compound 10 µM, first compound 0.0949 µM): 30.4%
- viability, T/C (second compound 10 µM, first compound 0.3 µM): 15.7%

Structure (SMILES): CC(C)NCC(C(=O)N1CCN(c2ncnc3c2C(C)CC3O)CC1)c1ccc(Cl)cc1 (stereo not given)
- viability, T/C (compound 0.1 µM): 90.6% [middle of 4 runs]
- viability, T/C (compound 0.316 µM): 70.8% [middle of 4 runs]
- viability, T/C (compound 1 µM): 48% [middle of 4 runs]
- viability, T/C (compound 3.16 µM): 40.3% [middle of 4 runs]
- viability, T/C (compound 10 µM): 32.6% [middle of 4 runs]
- IC50 (curve of compound): 946 nM [middle of 4 runs]

Source: PubChem BioAssay AID2060890 (Molecular Pharmacology Branch, DTP, NCI, 2025)
